# Tested on: normal human bronchial epithelial cells (LHS-9)
# Assay: Cellular fluorescence imaging of cells incubated with OVG's or free ICG
# Format: cell-based
# Conditions: 2 hr post-incubation; ICG 10 μg/ml
# Procedure: The cells were cultured for 24 hours in serum free culture medium supplied by the commercial vendor. […] An optical filter that allowed transmission of NIR light greater than 780 nm was used to capture the fluorescent signal onto a CCD camera.
compound,measurement,value
"CC1(C)C(/C=C/C=C/C=C/C=C2\N(CCCCS(=O)(=O)O)c3ccc4ccccc4c3C2(C)C)=[N+](CCCCS(=O)(=O)[O-])c2ccc3ccccc3c21 [ICG, indocyanine green]",localization in cells (confocal fluorescent images),remains mostly localized to the “rim” of the cells

# From US20110311455A1, “EN[…] GUIDED IMAGING AND […]” (THE REGENTS OF THE UNIVERSITY OF CALIFORNIA, priority 2008, published 2011)
